Assays:
adhesion formation = experiment: Murine adhesion model (total adhesion score); type: in vivo, mice; conditions: for adhesion formation (adhesion score): daily intraperitoneal injection, day 5 after injury (FIG. 9)
Experimental: Small molecule inhibitors were solubilized in sterile 2% hydroxyethyl-cellulose (Sigma Aldrich, #09368). Compounds were being added immediately prior to surgery, and were derived from a 100-150 mM stock solution to minimize the final DMSO content. The final solution (200 μL per 30 g body weight) was sandwiched between the visceral and parietal layer of the injured cecum and peritoneum respectively.
Mice were anesthetized by an intraperitoneal injection of a Medetomidin (500 μg/kg), Midazolam (5 mg/kg) and Fentanyl (50 μg/kg) cocktail, hereafter referred to as MMF. Monitoring anesthetic depth was assessed by toe reflex. Eyes were covered with Bepanthen to avoid dehydration, and the abdomen was shaved and disinfected with betadine and sterile phosphate buffered saline (PBS). Animals were kept on their backs on a heating plate at 37° C. A midline laparotomy (1-1.5 cm) was performed through the skin and peritoneum. Four hooks, positioned around the incision and fixed to a retractor and magnetic base plate, allowed for clear access to the abdominal cavity. A small surgical brush was used to gently abrade the peritoneal surface and apposing cecal surface. Two surgical knots using 4-0 silk sutures (Ethicon) were then placed through the serosal surface of the peritoneum. A cotton swab was used to gently apply a dab of talc powder (Sigma Aldrich, #243604) onto the injured surfaces. Before closure of the incision, buprenorphine (0.1 mg/kg) was pipetted in the abdomen to allow for initial post-surgical analgesia. For long-term analgesia, metamizol (Novalgin, 200 mg/kg) was provided through daily injection. The peritoneum and skin were closed with two separate 4-0 silk sutures (Ethicon). Upon closure of the incision, mice were woken up by antagonizing the MMF solution through a subcutaneous cocktail injection of Atipamezol (1 mg/kg) and Flumazenil (0.25 mg/kg). Mice were allowed to recover on a heating pad, after which they were housed together (females) or individually (males), and followed for 1-5 days. Adhesions were scored using gross morphological features that indicated adhesion development. Five individual adhesion features were scored (see table below) that together provided a cumulative value that determined the total adhesion score. With this system, complete absence of adhesions were scored as 0, whereas the maximum adhesion score was 15.
Mice were anesthetized by an intraperitoneal injection of a Medetomidin (500 μg/kg), Midazolam (5 mg/kg) and Fentanyl (50 μg/kg) cocktail, hereafter referred to as MMF. Monitoring anesthetic depth was assessed by toe reflex. Eyes were covered with Bepanthen to avoid dehydration, and the abdomen was shaved and disinfected with betadine and sterile phosphate buffered saline (PBS). Animals were kept on their backs on a heating plate at 37° C. A midline laparotomy (1-1.5 cm) was performed through the skin and peritoneum. Four hooks, positioned around the incision and fixed to a retractor and magnetic base plate, allowed for clear access to the abdominal cavity. A small surgical brush was used to gently abrade the peritoneal surface and apposing cecal surface. Two surgical knots using 4-0 silk sutures (Ethicon) were then placed through the serosal surface of the peritoneum. A cotton swab was used to gently apply a dab of talc powder (Sigma Aldrich, #243604) onto the injured surfaces. Before closure of the incision, buprenorphine (0.1 mg/kg) was pipetted in the abdomen to allow for initial post-surgical analgesia. […]

[1] = tested on: Met-5A cells on microcarrier beads; experiment: High-throughput carrier-carrier adhesion assay (nanoluciferase); type: cell-based, human; conditions: desiccation shock, high-throughput nanoluciferase assay (FIG. 6C)
Experimental: (§1) FIG. 6: Single-cell transcriptomics of heliocytes. A) Overview of the Dropseq workflow. B) Epi-fluorescent representative images of Met-5A cells stably expressing membranous GFP, stressed with desiccation and treated with small-molecule compounds for 24 hours (10 μM). Scale bar, 10 μm. C) Desiccation shock induces small-molecule sensitive carrier-carrier aggregation as assessed with a high-throughput nanoluciferase assay. ID) Adhesion propagation assay (see methods) with nanoluciferase expressing Met-5A cells after treatment with small molecule inhibitors for 24 hours (10 μM). E) Cre-exchange transmission assay (see methods) with Cre-recombinase and Cre-dependent nanoluciferase expressing Met-5A cells after treatment with small molecule inhibitors for 24 hours (10 μM).
Cells were incubated with ice cold luciferase lysis buffer (25 mM Tris-HCL pH 7.8, 1% Triton X-100, 15 mM MgSO4, 4 mM EGTA, 1 mM DTT) for 20 minutes. Both assays were performed in a 96-wells plate format. Luciferase firefly substrate was dissolved in PBS, and consisted of 20 mM Tricine, 2.67 mM MgSO4, 0.1 mM EDTA, 33.3 mM DTT, 0.52 mM ATP, 0.27 mM Acetyl-CoA, 5 mM NaOH, […], and 0.47 mM D-Luciferin (Carl Roth, #CN24.3). For nanoluciferase, the substrate solution included 47.2 μM Coelenterazine (Carl Roth, #4094.4). Luminescence was detected after 5 minutes of substrate and lysate co-incubation using the TriStar^2 LB 942 Modular Multimode microplate reader (Berthold Technologies).
Met-5A cells were seeded together with Cytodex® 3 microcarrier beads (Sigma Aldrich, #03275) in a ratio of 500:1, and allowed to adhere and grow for 5 days. Cell-covered beads were then eluted from the culture dish using a 25 mL stripette. The resulting solution was strained through a 100 μm cell strainer (Corning, #352360). […] was induced by placing the bead-containing cell strainer under a running cell culture flow hood for 15 minutes. Afterwards, beads were eluted with assay medium and placed in a cultivation dish coated with HEMA silicate solution (Sigma Aldrich, #P3932), to prevent cell attachment. After indicated time points, carrier complexes were collected by filtering them through a 200 μm cell strainer, which allows individual carriers to pass, while trapping carrier complexes. Adhesions were measured in a high throughput manner through the use of Met-5A cells stably expressing luciferase (AF23) or nanoluciferase (AF1) using Integra Viaflo pipettes.

Met-5A cells = experiment: Adhesion propagation assay (nanoluciferase expressing Met-5A cells); type: cell-based, human; conditions: for transmissibility: 10 μM, 24 hours, adhesion propagation assay (FIG. 6D) and Cre-exchange transmission assay (FIG. 6E)
Experimental: […] After 24 hours, unbound carriers were washed away and nanoluciferase luminescence was measured. This represents the initial stress-dependent transmitted adhesion.
[…] Carriers were then separated from the monolayer and placed on an unstressed Met-5A wild-type monolayer. After 24 hours, unbound beads were washed away and nanoluciferase luminescence was measured. This represents the first stress-independent transmitted adhesion.
Carriers were then separated from the monolayer and placed on unstressed cell-covered beads stably expressing nanoluciferase (AF1) for 3 hours. Carriers were then isolated once more and placed on an unstressed Met-5A monolayer stably expressing the dTomato-P2A-NanoLuciferase reporter construct (AF34). Unbound beads were then washed away and nanoluciferase luminescence was measured after 24 hours. This represents the second stress-independent transmitted adhesion.
This procedure was continued similarly for the consecutive third and fourth transmissions.
First, repeated consecutive mixing experiments were performed with nanoluciferase-expressing Met-5A cells to study the extent of adhesion propagation. When unstressed cells were exposed to heliocytes, and then separated, they were fully able to generate adhesions even though they had not themselves experienced stress (FIG. 3F). Pharmacological inhibition of HIF-1α signaling has been one of the few proposed intervention routes to reduce adhesion burden^16, thus it was tested to see whether the HIF-1α inhibitor echinomycin could inhibit transmissibility. […] Transmission occurred rapidly, as unstressed cells only had to be exposed to heliocytes for a total of 90 min for successful transmission to occur and allow them to form adhesions themselves (FIG. 3H). Second, two additional cell lines were generated, one expressing Cre recombinase and one expressing a stop codon flanked by two LoxP sites followed by a dTomato-P2A-Nanoluciferase. In this transmission assay, Cre recombinase only drives dTomato-P2A-Nanoluc expression if extensive cytoplasmic mixing occurs that allows Cre recombinase protein to be transferred and shuttled into the nucleus of the dTomato-P2A-Nanoluc cells. Indeed, extensive dTomato fluorescence was observed 3 hours after unstressed carriers were seeded onto a stressed monolayer (FIG. 3I). Under consecutive mixing conditions, like the propagation set-up, naive cells receiving cellular contents from heliocytes could in turn transmit to other cells independently from HIF-1α signaling, for a total of three rounds after the original stress stimulus (FIGS. 3J and K). Because cytoskeletal networks and membrane shuffling are extremely sensitive to shifts in available calcium^17, it was asked whether calcium signaling underlies heliocyte formation and filipodial extensions, using two independent approaches.

[2] = tested on: heliocytes (stressed Met-5A mesothelial cells); experiment: Protrusion development in desiccation-stressed Met-5A cells expressing membranous GFP (epi-fluorescence); type: cell-based, human; conditions: 10 μM, 24 hours, desiccation stress (FIG. 6B)
Experimental: as §1
Met-5A cells were seeded on gelatin (Sigma Aldrich, #G1393) coated dishes. Once a confluent monolayer was established, stressed cell-covered beads were seeded onto the monolayer. For the inhibitory experiments, if not indicated otherwise, monolayer cells were pretreated with the indicated compound for 30 minutes in culture medium. Afterwards the adhesion assay was performed as described above.
Mesothelial protrusion analysis was performed using the Advanced weka segmentation Fiji plugin^37. It utilizes a collection of machine learning algorithms for segmentation. Specifically, pixel-based segmentation is based on image features annotated to different classes. Pixel samples were free drawn and assigned to respective classes, e.g. ‘filopodia’, ‘cell body’, or ‘background’. Subsequent rounds of training were performed to allot respective pixels and structures to its corresponding classes for improved segmentation. Training features, such as ‘Gaussian blur’, ‘Sobel filter’, ‘Hessian’, ‘Difference of Gaussians’ and ‘Membrane projections’ were applied along with default classifier ‘Fast Random Forest’. Other settings were kept as default (membrane thickness 1, membrane patch size 19, minimum sigma 1.0, and maximum sigma 16.0). The trained classifier and data were saved for analysis of other ‘stressed’ and ‘unstressed’ mesothelial datasets. A macro was written to automate the above steps for other datasets with pause for 5 seconds (wait(5000) function) after each step for smooth processing. Images from the segmented classes were extracted and subjected to post processing.
In order to identify underlying mechanisms of heliocyte transformation, differential gene expression analysis was performed using a likelihood-ratio test for single cell gene expression data^21. This identified 1644 genes that were regulated in stressed cells at one or more time points (FDR<10%). […]

[3] = tested on: caspase3 activity in heliocytes; experiment: Caspase3 activity reporter assay (nanoluciferase-caspase3 cleavage site-degradation peptide); type: cell-based, human; conditions: stressed mesothelial cells (heliocytes), compared to control (FIG. 12)
Experimental: Then, determination of caspase3 activity in heliocytes was performed. Cells stably expressing a nanoluciferase-caspase3-cleaving-site-degredation-peptide (FIG. 12) were grown on beads seeded onto a Met-5A monolayer. After 24 h nanoluciferase activity was determined. The degradation peptide leads to constitutive degradation of nanoluciferase, active caspase3 cleaves the protein linker, thus removing the degradation signal, leading to increased nanoluciferase amount.
(§2) In order to test listed inhibitor treatments for potential unwanted side effects, in vitro as well as in vivo apoptosis readouts were performed. […] Next, fragmented DNA amounts in the in vitro adhesions were determined, staurosporine representing as the positive control. […] Apoptosis signaling cascades dependent on caspase3 protease activity. To screen caspase3 activity in a high throughput manner, a new functional screening assay was developed. The assay is based on a nanoluciferase fused to a degradation signaling peptide interlinked with caspase3 cleavage sites. Once activated, caspase3 cleaves protein linker, removes the degradation signal and prevents proteasomal digestion of the nanoluciferase.

[4] = tested on: stressed mesothelial cells (heliocytes); experiment: Apoptosis assay: fragmented DNA (Cell Death Detection ELISA) in in vitro bead assay; type: cell-based, human; conditions: 10 μM, stressed mesothelial cells (FIG. 11)
Experimental: FIG. 11: Apoptosis Assay. Measurement of fragmented DNA as indicator for apoptosis after 5 days having applied CK666, Golgicide A, Rhosin, Bepridil, Heat shock protein inhibitor 1 (HIS-1) using the in vitro bead assay. Stautosporin serves as a positive control.
Met-5A cells were seeded on gelatin (Sigma Aldrich, #G1393) coated dishes. Once a confluent monolayer was established, stressed cell-covered beads were seeded onto the monolayer. For the inhibitory experiments, if not indicated otherwise, monolayer cells were pretreated with 10 μM of indicated compounds for 30 minutes in culture medium. After 24 h fragmented DNA was determined via Cell Death Detection […] (Sigma Aldrich, #11774425001).
as §2

| Compound | adhesion formation (adhesion score) (adhesion formation) | adhesion formation (carrier-carrier aggregation) [1] | transmissibility (Met-5A cells) | protrusion development in heliocytes [2] | adhesion score (adhesion formation; single application of 10 nM in 2% cellulose, topical, 5 days after injury (FIG. 16)) | caspase3 activity (nanoluciferase activity of reporter) [3] | initial desiccation-induced transmission (Met-5A cells; HIF-1α inhibition (FIG. 3G)) | fragmented DNA (indicator for apoptosis) [4] |
| --- | --- | --- | --- | --- | --- | --- | --- | --- |
| CC(C)COCC(CN(Cc1ccccc1)c1ccccc1)N1CCCC1 (stereo not drawn) [Bepridil] | robustly inhibited adhesion formation | completely blocked | completely blocked | completely blocked | – | – | – | – |
| Cc1[nH]c2ccccc2c1CCNC(=O)c1ccccc1F [CK-666] | robustly inhibited adhesion formation | completely blocked | completely blocked | completely blocked | – | – | – | – |
| Fc1cc(F)c2c(c1)C1C=CCC1C(c1cccnc1)N2 (stereo not drawn) [Golgicide A] | robustly inhibited adhesion formation | completely blocked | completely blocked | completely blocked | – | – | – | – |
| CNc1ccc([N+](=O)[O-])c(Nc2ccc3[nH]ncc3c2)n1 [KRIBB11] | – | – | – | – | shows no effect | – | – | – |
| CN[C@@H]1C[C@H]2O[C@@](C)([C@@H]1OC)n1c3ccccc3c3c4c(c5c6ccccc6n2c5c31)C(=O)NC4 [Staurosporine] | – | – | – | – | – | enhanced nanoluciferase activity | – | – |
| CS[C@H]1SC[C@H]2C(=O)N(C)[C@@H](C(C)C)C(=O)OC[C@@H](NC(=O)c3cnc4ccccc4n3)C(=O)N[C@@H](C)C(=O)N(C)[C@@H]1C(=O)N(C)[C@@H](C(C)C)C(=O)OC[C@@H](NC(=O)c1cnc3ccccc3n1)C(=O)N[C@@H](C)C(=O)N2C [echinomycin] | – | – | – | – | – | – | could be prevented | – |
| Rhosin | robustly inhibited adhesion formation | completely blocked | completely blocked | completely blocked | – | higher caspase3 activity | – | significantly more fragmented DNA |

Reference: patent US20220125754A1, “TREATING THE CAUSATIVE AGENT IN ADHESIOGENESIS” (Helmholtz Zentrum München - Deutsches Forschungszentrum Für …, priority 2019, published 2022)
